From patent US8785488B2 (Exelixis Patent Company LLC, priority 2009, dated 2014)

What was measured:
[1] = biological target: T1, human TGR5 (h-TGR5) (Homo sapiens, UniProt Q8TDU6); test: TGR5/CRE-Luciferiase Assay (HEK 293 hTGR5/CRE-Luc cells); assay type: cell-based; settings: h-TGR5 CRE-Luc EC50, Table 1; read-out: CRE-Luc (EC50)
T1 construct: expressed in transfected cells
T1 sequence (Q8TDU6 1-330): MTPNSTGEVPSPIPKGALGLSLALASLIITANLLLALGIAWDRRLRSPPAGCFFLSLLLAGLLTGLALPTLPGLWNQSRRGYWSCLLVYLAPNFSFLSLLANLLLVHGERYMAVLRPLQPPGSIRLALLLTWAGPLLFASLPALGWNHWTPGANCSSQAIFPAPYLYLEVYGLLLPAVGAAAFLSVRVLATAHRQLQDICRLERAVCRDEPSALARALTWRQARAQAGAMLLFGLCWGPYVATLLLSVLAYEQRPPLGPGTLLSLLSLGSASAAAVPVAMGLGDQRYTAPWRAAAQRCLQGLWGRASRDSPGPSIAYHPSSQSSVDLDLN
Summary of the method: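 HEK293 cells stably carrying hTGR5 and a CRE-luciferase reporter were exposed to serially diluted compounds (diluted in DMEM with 5% DMSO) for 6 h. Cells were then lysed in luciferase buffer, luminescence was read, and EC50 values were derived from dose-response curves.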

[2] = biological target: T2, h-TGR5 (Homo sapiens, UniProt Q8TDU6); test: TGR5 cAMP Assay using Cisbio cAMP Dynamic2 htrf kit (hTGR5CRE-luc HEK 293 cells); assay type: cell-based; settings: h-TGR5 cAMP EC50, Table 1; read-out: cAMP (EC50)
T2 construct: expressed in transfected cells
T2 sequence (Q8TDU6 1-330): T1 sequence (Q8TDU6 1-330)
Summary of the method: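 […], 4000 hTGR5CRE-luc HEK 293 cells per well, with 0.5 mM IBMX and d2-cAMP, were incubated 30 min at room temperature with compounds in 8-point half-log series, in quadruplicate.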

EC50 [1] [nM] | EC50 [2] [nM] | SMILES
< 100 | < 100 | COc1cc(C(C)(C)c2cnc(SCc3c(F)cc(C(=O)Nc4nnn[nH]4)cc3Cl)n2-c2ccc(F)cc2)ccc1Cl [3-chloro-4-({[5-{1-[4-chloro-3-(methyloxy)phenyl]-1-methylethyl}-1-(4-fluorophenyl)-1H-imidazol-2-yl]thio}methyl)-5-fluoro-N-1H-tetrazol-5-ylbenzamide]
< 100 | < 100 | COCCOCCOCCOCCOCCOCCOCCOCCOCCOCCOCCOCCOCCOCCNS(=O)(=O)c1cc(F)c(CSc2ncc(C(C)(C)c3ccc(Cl)c(OC)c3)n2-c2ccc(F)cc2)c(Cl)c1 [3-chloro-4-({[5-{1-[4-chloro-3-(methyloxy)phenyl]-1-methylethyl}-1-(4-fluorophenyl)-1H-imidazol-2-yl]thio}methyl)-5-fluoro-N-3,6,9,12,15,18,21,24,27,30,33,36, 39,42-tetradecaoxatritetracont-1-ylbenzenesulfonamide]
< 100 | < 100 | COc1cc(C(C)(C)c2cnc(SCc3c(F)cc(C(=O)NC4CCN(c5nnn[nH]5)CC4)cc3Cl)n2-c2ccc(F)cc2)ccc1Cl [3-chloro-4-({[5-{1-[4-chloro-3-(methyloxy)phenyl]-1-methylethyl}-1-(4-fluorophenyl)-1H-imidazol-2-yl]thio}methyl)-5-fluoro-N-[1-(1H-tetrazol-5-yl)piperidin-4-yl]benzamide]
< 100 | < 100 | COc1cc(C(C)(C)c2cnc(SCc3c(F)cc(N)cc3Cl)n2-c2ccc(F)cc2)ccc1Cl [3-chloro-4-({[5-{1-[4-chloro-3-(methyloxy)phenyl]-1-methylethyl}-1-(4-fluorophenyl)-1H-imidazol-2-yl]thio}methyl)-5-fluoroaniline]
< 100 | < 100 | COc1cc(C(C)(C)c2cnc(SCc3c(F)cc(S(=O)(=O)O)cc3Cl)n2-c2ccc(F)cc2)ccc1Cl [3-chloro-4-({[5-{1-[4-chloro-3-(methyloxy)phenyl]-1-methylethyl}-1-(4-fluorophenyl)-1H-imidazol-2-yl]thio}methyl)-5-fluorobenzenesulfonic acid]
< 100 | < 100 | COc1cc(C(C)(C)c2cnc(SCc3c(F)cc(C(=O)O)cc3Cl)n2-c2ccc(F)cc2)ccc1Cl [3-chloro-4-({[5-{1-[4-chloro-3-(methyloxy)phenyl]-1-methylethyl}-1-(4-fluorophenyl)-1H-imidazol-2-yl]thio}methyl)-5-fluorobenzoic acid]
100 to 1000 | 100 to 1000 | COc1cc(C(C)(C)c2cnc(SCc3ccc(S(=O)(=O)NC(=O)Nc4nccs4)cc3Cl)n2-c2ccc(F)cc2)ccc1Cl [3-chloro-4-({[5-{1-[4-chloro-3-(methyloxy)phenyl]-1-methylethyl}-1-(4-fluorophenyl)-1H-imidazol-2-yl]thio}methyl)-N-[(1,3-thiazol-2-ylamino)carbonyl]benzenesulfonamide]
100 to 1000 | 100 to 1000 | COc1cc(C(C)(C)c2cnc(SCc3ccc(S(=O)(=O)NC(=O)Nn4cccc4)cc3Cl)n2-c2ccc(F)cc2)ccc1Cl [3-chloro-4-({[5-{1-[4-chloro-3-(methyloxy)phenyl]-1-methylethyl}-1-(4-fluorophenyl)-1H-imidazol-2-yl]thio}methyl)-N-[(1H-pyrrol-1-ylamino)carbonyl]benzenesulfonamide]
< 100 | < 100 | COc1cc(C(C)(C)c2cnc(SCc3ccc(S(=O)(=O)NC(=O)NC4CCCC4)cc3Cl)n2-c2ccc(F)cc2)ccc1Cl [3-chloro-4-({[5-{1-[4-chloro-3-(methyloxy)phenyl]-1-methylethyl}-1-(4-fluorophenyl)-1H-imidazol-2-yl]thio}methyl)-N-[(cyclopentylamino)carbonyl] benzenesulfonamide]
< 100 | < 100 | COc1cc(C(C)(C)c2cnc(SCc3ccc(S(=O)(=O)NC(=O)NC4CC4)cc3Cl)n2-c2ccc(F)cc2)ccc1Cl [3-chloro-4-({[5-{1-[4-chloro-3-(methyloxy)phenyl]-1-methylethyl}-1-(4-fluorophenyl)-1H-imidazol-2-yl]thio}methyl)-N-[(cyclopropylamino)carbonyl] benzenesulfonamide]
100 to 1000 | < 100 | CCNC(=O)NS(=O)(=O)c1ccc(CSc2ncc(C(C)(C)c3ccc(Cl)c(OC)c3)n2-c2ccc(F)cc2)c(Cl)c1 [3-chloro-4-({[5-{1-[4-chloro-3-(methyloxy)phenyl]-1-methylethyl}-1-(4-fluorophenyl)-1H-imidazol-2-yl]thio}methyl)-N-[(ethylamino)carbonyl]benzenesulfonamide]
100 to 1000 | < 100 | COc1cc(C(C)(C)c2cnc(SCc3ccc(S(=O)(=O)NC(=O)NN4CCOCC4)cc3Cl)n2-c2ccc(F)cc2)ccc1Cl [3-chloro-4-({[5-{1-[4-chloro-3-(methyloxy)phenyl]-1-methylethyl}-1-(4-fluorophenyl)-1H-imidazol-2-yl]thio}methyl)-N-[(morpholin-4-ylamino)carbonyl]benzenesulfonamide]
< 100 | < 100 | CCCNC(=O)NS(=O)(=O)c1ccc(CSc2ncc(C(C)(C)c3ccc(Cl)c(OC)c3)n2-c2ccc(F)cc2)c(Cl)c1 [3-chloro-4-({[5-{1-[4-chloro-3-(methyloxy)phenyl]-1-methylethyl}-1-(4-fluorophenyl)-1H-imidazol-2-yl]thio}methyl)-N-[(propylamino)carbonyl]benzenesulfonamide]
100 to 1000 | 100 to 1000 | COc1cc(C(C)(C)c2cnc(SCc3ccc(S(=O)(=O)NC(=O)NN4CCCC4)cc3Cl)n2-c2ccc(F)cc2)ccc1Cl [3-chloro-4-({[5-{1-[4-chloro-3-(methyloxy)phenyl]-1-methylethyl}-1-(4-fluorophenyl)-1H-imidazol-2-yl]thio}methyl)-N-[(pyrrolidin-1-ylamino)carbonyl]benzenesulfonamide]
100 to 1000 | 100 to 1000 | COC[C@H]1CCCN1NC(=O)NS(=O)(=O)c1ccc(CSc2ncc(C(C)(C)c3ccc(Cl)c(OC)c3)n2-c2ccc(F)cc2)c(Cl)c1 [3-chloro-4-({[5-{1-[4-chloro-3-(methyloxy)phenyl]-1-methylethyl}-1-(4-fluorophenyl)-1H-imidazol-2-yl]thio}methyl)-N-[({(2R)-2-[(methyloxy)methyl]pyrrolidin-1-yl}amino)carbonyl]benzenesulfonamide]
100 to 1000 | < 100 | COc1cc(C(C)(C)c2cnc(SCc3ccc(S(=O)(=O)NC(=O)NC(C)C)cc3Cl)n2-c2ccc(F)cc2)ccc1Cl [3-chloro-4-({[5-{1-[4-chloro-3-(methyloxy)phenyl]-1-methylethyl}-1-(4-fluorophenyl)-1H-imidazol-2-yl]thio}methyl)-N-{[(1-methylethyl)amino]carbonyl} benzenesulfonamide]
100 to 1000 | 100 to 1000 | COc1cc(C(C)(C)c2cnc(SCc3ccc(S(=O)(=O)NC(=O)NCC(C)(C)O)cc3Cl)n2-c2ccc(F)cc2)ccc1Cl [3-chloro-4-({[5-{1-[4-chloro-3-(methyloxy)phenyl]-1-methylethyl}-1-(4-fluorophenyl)-1H-imidazol-2-yl]thio}methyl)-N-{[(2-hydroxy-2-methylpropyl)amino]carbonyl} benzenesulfonamide]
100 to 1000 | 100 to 1000 | COc1cc(C(C)(C)c2cnc(SCc3ccc(S(=O)(=O)NC(=O)NN4CCN(C)CC4)cc3Cl)n2-c2ccc(F)cc2)ccc1Cl [3-chloro-4-({[5-{1-[4-chloro-3-(methyloxy)phenyl]-1-methylethyl}-1-(4-fluorophenyl)-1H-imidazol-2-yl]thio}methyl)-N-{[(4-methylpiperazin-1-yl)amino]carbonyl} benzenesulfonamide]
100 to 1000 | < 100 | COc1cc(C(C)(C)c2c(C)nc(SCc3c(F)cc(C(=O)O)cc3Cl)n2-c2ccc(F)cc2)ccc1Cl [3-chloro-4-({[5-{1-[4-chloro-3-(methyloxy)phenyl]-1-methylethyl}-1-(4-fluorophenyl)-4-methyl-1H-imidazol-2-yl]thio}methyl)-5-fluorobenzoic acid]
100 to 1000 | 1000 to 10000 | COc1cc(C(C)(C)c2cnc(SCc3ccc(S(=O)(=O)NC(=O)NN4CCCC4)cc3Cl)n2-c2cc(C)c(F)cn2)ccc1Cl [3-chloro-4-({[5-{1-[4-chloro-3-(methyloxy)phenyl]-1-methylethyl}-1-(5-fluoro-4-methylpyridin-2-yl)-1H-imidazol-2-yl]thio}methyl)-N-[(pyrrolidin-1-ylamino)carbonyl]benzenesulfonamide]
< 100 | < 100 | COc1cc(C(C)(C)c2cnc(SCc3c(F)cc(C(=O)O)cc3Cl)n2-c2ccc(F)cn2)ccc1Cl [3-chloro-4-({[5-{1-[4-chloro-3-(methyloxy)phenyl]-1-methylethyl}-1-(5-fluoropyridin-2-yl)-1H-imidazol-2-yl]thio}methyl)-5-fluorobenzoic acid]
100 to 1000 | 100 to 1000 | COc1cc(C(C)(C)c2cnc(SCc3ccc(S(=O)(=O)NC(=O)NN4CCCC4)cc3Cl)n2-c2ccc(F)cn2)ccc1Cl [3-chloro-4-({[5-{1-[4-chloro-3-(methyloxy)phenyl]-1-methylethyl}-1-(5-fluoropyridin-2-yl)-1H-imidazol-2-yl]thio}methyl)-N-[(pyrrolidin-1-ylamino)carbonyl]benzenesulfonamide]
